Test results from patent publication US20140135310A1, “SULPHONAMIDE DERIVATIVES OF ALICYCLIC AMINES FOR THE TREATMENT OF CENTRAL NERVOUS SYSTEM DISEASES” (Adamed Sp. z o.o., priority 2011, published 2014).

Assays:
M3 muscarinic receptors = biological target: T1, M3 muscarinic receptors (Homo sapiens, UniProt P20309); experiment: Radioligand binding assay, muscarinic M3 receptors; conditions: test compound 1×10^−6 M
T1 construct: expressed in transfected cells; host or cells: CHO cells
How it was run: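 Radioligand competition binding, detected by scintillation counting; non-specific binding defined with excess unlabelled ligand. Results given as % inhibition of control specific binding; IC50 from Hill-equation fit of competition curves, Ki via Cheng-Prusoff with radioligand KD from Scatchard plot.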

5-HT6 receptor = biological target: T2, 5-HT6 receptor (Homo sapiens, UniProt P50406); experiment: Radioligand binding assay, serotoninergic 5-HT6 receptors; conditions: for inhibition at 1 µM: binding assay result in %, Table 5a; for Ki: read-out: Inhibition constants Ki, 5-HT6
T2 construct: purchased PerkinElmer
How it was run: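 Values are Ki from Cheng–Prusoff, taking IC50 from Hill nonlinear regression of competition curves and KD from a Scatchard plot. Specific binding was total minus binding with excess unlabelled ligand. Radioligand displacement was detected by scintillation counting, and data were also reported as percent of control specific binding.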

[1] = biological target: dopaminergic receptors D2 (Homo sapiens, UniProt P14416); experiment: Radioligand binding assay, dopaminergic D2 receptors; conditions: for inhibition at 1 µM: binding assay, test compound 1×10^−6 M; for Ki: read-out: Inhibition constants Ki for D2 receptors, D2
How it was run: (§1)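 Scintillation read-out. Specific = total − nonspecific (excess cold ligand). Data as % of control specific binding / % inhibition; IC50 by Hill fit; Ki = IC50/(1+L/KD), KD from Scatchard plot.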

[2] = biological target: T3, H1 histaminergic receptors (Homo sapiens, UniProt P35367); experiment: Radioligand binding assay, histaminergic H1 receptors; conditions: human recombinant (HEK-293 cells), [3H]pyrilamine 1 nM
T3 construct: expressed in transfected cells; host or cells: HEK-293 cells
How it was run: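 Competition binding at human H1 receptors; specific binding taken as total minus non-specific binding in excess unlabelled ligand, scintillation read-out. IC50 from Hill-equation fit of competition curves; Ki by Cheng-Prusoff using radioligand concentration and Kd (from Scatchard plot).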

receptors D4.4 = biological target: T4, receptors D4.4 (Homo sapiens, UniProt P21917); experiment: Radioligand binding assay, dopaminergic D4 (D4.4) receptors; conditions: test compound 1×10^−6 M
T4 sequence (P21917 1-419): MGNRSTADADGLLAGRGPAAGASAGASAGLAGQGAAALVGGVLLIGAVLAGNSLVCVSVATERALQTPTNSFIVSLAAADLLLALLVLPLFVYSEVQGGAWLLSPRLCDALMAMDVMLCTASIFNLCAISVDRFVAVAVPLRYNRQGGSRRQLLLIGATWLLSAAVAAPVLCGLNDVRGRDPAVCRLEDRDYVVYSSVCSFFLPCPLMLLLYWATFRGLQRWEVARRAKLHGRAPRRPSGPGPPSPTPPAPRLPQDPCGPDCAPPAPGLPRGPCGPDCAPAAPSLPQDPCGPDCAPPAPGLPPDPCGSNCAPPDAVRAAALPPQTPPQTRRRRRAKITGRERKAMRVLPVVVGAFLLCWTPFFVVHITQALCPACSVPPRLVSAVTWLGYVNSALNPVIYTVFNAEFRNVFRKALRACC
How it was run: as §1

[3] = biological target: T5, serotonin transporter (SERT) (Homo sapiens, UniProt P31645); experiment: Radioligand binding assay, serotonin transporter (SERT); conditions: for inhibition at 1 µM: binding assay, test compound 1×10^−6 M; for Ki: read-out: Inhibition constants Ki for SERT, SERT
T5 construct: expressed in transfected cells; host or cells: CHO cells
How it was run: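 Values are derived from competition curves fitted by the Hill equation to give IC50, then converted to Ki by Cheng-Prusoff with radioligand Kd from Scatchard analysis. Specific binding equals total minus non-specific (excess cold ligand), counted by scintillation, and is also expressed as percent inhibition of control.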

σ receptors = experiment: Radioligand binding assay, σ receptors; conditions: rat cerebral cortex, [3H]DTG 8 nM
How it was run: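 Values derive from radioligand displacement, with non-specific binding defined by excess cold ligand and detection by scintillation. Hill-fit IC50s were converted to Ki via Cheng-Prusoff using Scatchard-derived Kd; percent inhibition of control specific binding also reported.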

5-HT2C receptor = biological target: T6, 5-HT2C receptor (Homo sapiens, UniProt P28335); experiment: Radioligand binding assay, serotoninergic 5-HT2C receptors; conditions: test compound 1×10^−6 M
T6 construct: expressed in transfected cells; host or cells: HEK-293 cells
T6 sequence (P28335 33-458): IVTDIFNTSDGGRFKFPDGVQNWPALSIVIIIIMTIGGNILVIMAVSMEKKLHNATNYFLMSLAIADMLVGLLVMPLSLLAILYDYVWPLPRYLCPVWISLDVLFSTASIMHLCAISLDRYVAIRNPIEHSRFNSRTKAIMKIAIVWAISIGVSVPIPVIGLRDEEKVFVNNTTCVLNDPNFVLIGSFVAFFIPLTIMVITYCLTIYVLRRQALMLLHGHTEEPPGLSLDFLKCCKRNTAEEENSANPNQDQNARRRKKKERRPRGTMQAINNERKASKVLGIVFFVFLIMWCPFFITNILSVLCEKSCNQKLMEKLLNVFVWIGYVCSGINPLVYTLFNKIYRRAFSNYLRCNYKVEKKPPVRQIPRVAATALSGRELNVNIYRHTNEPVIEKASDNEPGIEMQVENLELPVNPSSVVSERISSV

T2 sequence (P50406 whole entry): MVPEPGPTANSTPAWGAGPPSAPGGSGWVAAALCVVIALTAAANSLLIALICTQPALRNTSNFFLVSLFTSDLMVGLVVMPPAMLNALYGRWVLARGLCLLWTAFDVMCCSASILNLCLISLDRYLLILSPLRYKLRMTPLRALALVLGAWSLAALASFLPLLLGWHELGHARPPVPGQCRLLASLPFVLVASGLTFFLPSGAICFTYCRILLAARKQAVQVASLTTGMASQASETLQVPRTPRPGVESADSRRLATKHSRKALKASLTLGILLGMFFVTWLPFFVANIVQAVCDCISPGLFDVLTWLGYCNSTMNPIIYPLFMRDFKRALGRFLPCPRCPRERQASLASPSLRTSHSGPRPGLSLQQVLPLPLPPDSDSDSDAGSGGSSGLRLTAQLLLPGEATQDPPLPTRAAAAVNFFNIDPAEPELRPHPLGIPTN
T3 sequence (P35367 whole entry): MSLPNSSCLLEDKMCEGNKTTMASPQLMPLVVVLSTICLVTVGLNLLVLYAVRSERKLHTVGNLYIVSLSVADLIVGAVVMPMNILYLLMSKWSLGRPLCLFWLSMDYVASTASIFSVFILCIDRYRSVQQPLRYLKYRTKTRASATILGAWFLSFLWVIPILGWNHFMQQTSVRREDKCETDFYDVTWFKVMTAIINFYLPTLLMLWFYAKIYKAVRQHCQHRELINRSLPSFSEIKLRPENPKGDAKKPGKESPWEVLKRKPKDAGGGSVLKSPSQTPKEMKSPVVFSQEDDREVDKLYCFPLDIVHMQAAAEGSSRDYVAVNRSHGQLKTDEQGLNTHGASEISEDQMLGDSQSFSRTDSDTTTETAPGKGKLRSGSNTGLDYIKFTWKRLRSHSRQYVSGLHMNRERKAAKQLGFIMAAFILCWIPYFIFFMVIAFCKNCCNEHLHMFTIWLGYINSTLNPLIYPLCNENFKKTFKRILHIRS
T5 sequence (P31645 whole entry): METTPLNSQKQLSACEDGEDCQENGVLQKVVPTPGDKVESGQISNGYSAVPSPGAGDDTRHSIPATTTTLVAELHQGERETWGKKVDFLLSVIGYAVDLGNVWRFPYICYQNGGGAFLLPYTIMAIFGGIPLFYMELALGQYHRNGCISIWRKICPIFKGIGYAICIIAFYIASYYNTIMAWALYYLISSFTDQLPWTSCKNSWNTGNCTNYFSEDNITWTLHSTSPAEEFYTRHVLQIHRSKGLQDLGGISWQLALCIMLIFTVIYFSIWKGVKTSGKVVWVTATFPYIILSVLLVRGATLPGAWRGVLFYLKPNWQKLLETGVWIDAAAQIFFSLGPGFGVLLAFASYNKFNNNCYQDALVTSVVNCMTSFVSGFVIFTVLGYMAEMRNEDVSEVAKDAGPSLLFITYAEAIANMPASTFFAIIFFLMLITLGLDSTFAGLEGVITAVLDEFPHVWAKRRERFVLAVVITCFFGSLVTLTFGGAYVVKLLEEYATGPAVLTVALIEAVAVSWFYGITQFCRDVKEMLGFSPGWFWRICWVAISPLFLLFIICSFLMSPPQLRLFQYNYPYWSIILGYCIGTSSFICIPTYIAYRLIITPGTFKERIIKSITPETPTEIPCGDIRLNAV
dopaminergic receptors D2, sequence (P14416 whole entry): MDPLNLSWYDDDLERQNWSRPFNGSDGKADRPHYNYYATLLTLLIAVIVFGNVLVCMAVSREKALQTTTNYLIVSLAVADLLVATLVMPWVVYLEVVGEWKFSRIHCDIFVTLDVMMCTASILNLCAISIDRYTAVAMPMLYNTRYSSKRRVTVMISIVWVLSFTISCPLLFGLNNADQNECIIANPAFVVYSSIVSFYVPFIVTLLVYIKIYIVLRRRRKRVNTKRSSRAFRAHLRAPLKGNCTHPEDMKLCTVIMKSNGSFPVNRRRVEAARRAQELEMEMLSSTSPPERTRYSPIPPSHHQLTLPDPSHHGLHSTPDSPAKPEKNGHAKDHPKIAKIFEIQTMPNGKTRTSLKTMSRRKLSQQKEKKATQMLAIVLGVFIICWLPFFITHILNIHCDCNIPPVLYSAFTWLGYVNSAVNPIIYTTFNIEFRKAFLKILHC
T1 sequence (P20309 whole entry): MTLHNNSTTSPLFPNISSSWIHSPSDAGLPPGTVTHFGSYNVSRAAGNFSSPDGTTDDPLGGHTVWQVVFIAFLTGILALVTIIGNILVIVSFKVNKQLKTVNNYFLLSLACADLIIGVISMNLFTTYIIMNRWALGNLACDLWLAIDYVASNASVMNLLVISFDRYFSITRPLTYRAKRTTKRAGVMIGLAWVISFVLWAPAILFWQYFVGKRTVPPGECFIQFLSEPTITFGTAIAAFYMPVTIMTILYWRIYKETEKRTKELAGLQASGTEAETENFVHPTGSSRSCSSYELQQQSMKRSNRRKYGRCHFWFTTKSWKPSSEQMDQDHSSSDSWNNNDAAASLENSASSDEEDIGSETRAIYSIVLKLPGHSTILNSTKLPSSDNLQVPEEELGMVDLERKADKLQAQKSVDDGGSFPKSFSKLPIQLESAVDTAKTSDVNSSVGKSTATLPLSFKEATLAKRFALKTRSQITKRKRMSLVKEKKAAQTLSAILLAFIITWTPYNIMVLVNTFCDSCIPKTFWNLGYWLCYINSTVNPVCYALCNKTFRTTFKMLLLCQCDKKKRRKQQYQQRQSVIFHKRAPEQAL

Row | SMILES | inhibition at 1 µM (M3 muscarinic receptors) | inhibition at 1 µM (5-HT6 receptor) | Ki (5-HT6 receptor) | inhibition at 1 µM [1] | inhibition at 1 µM [2] | inhibition at 1 µM (receptors D4.4) | inhibition at 1 µM [3] | Ki [3] | σ [%] (σ receptors) | inhibition at 1 µM (5-HT2C receptor) | Ki [1]
1 | Cc1cccc(S(=O)(=O)NC2CCN(CCCc3c[nH]c4ccc(Cl)cc34)C2)c1 (centres unmarked) [Compound 86, N-[1-[3-(5-chloro-1H-indol-3-yl)propyl]pyrrolidin-3-yl]-3-methyl-benzenesulphonamide] | 1% | 98% | 13 nM | 93% | 70% | 88% | 105% | 1.1 nM | 65% | – | –
2 | CC1(C)Cc2cccc(OCCN3CCC(NS(=O)(=O)c4cccc(O)c4)C3)c2O1 (centres unmarked) [Compound 107, N-[1-[2-[(2,2-Dimethyl-3H-benzofuran-7-yl)oxy]ethyl]pyrrolidin-3-yl]-3-hydroxybenzenesulphonamide] | 8% | 39% | – | 89% | 30% | 83% | -4% | – | 47% | 86% | –
3 | O=S(=O)(NCC1CN(CCCc2noc3cc(F)ccc23)C1)c1ccc2ccccc2c1 [Compound 134, N-[[1-[3-(6-Fluoro-1,2-benzoxazol-3-yl)propyl]azetidin-3-yl]methyl]-naphthalene-2-sulphonamide] | 34% | 94% | – | 96% | 45% | 77% | 47% | – | 88% | 87% | –
4 | O=S(=O)(NCC1CCN(CCOc2cccc3ccccc23)C1)c1ccc2ccccc2c1 (centres unmarked) [Compound 124, N-[[1-[2-(1-Naphthyloxy)ethyl]pyrrolidin-3-yl]methyl]naphthalene-2-sulphonamide] | 49% | 99% | – | 94% | – | 54% | 100% | – | 82% | 80% | –
5 | O=S(=O)(NC1CCN(CCOc2cccc3ccccc23)C1)c1ccc2ccccc2c1 (centres unmarked) [Compound 116, N-[1-[2-(1-Naphthyloxy)ethyl]pyrrolidin-3-yl]naphthalene-2-sulphonamide] | 9% | 95% | 71 nM | 91% | – | 64% | 95% | 31 nM | 56% | – | –
6 | O=S(=O)(NCC1CN(CCOc2cccc3ccccc23)C1)c1ccc2ccccc2c1 [Compound 122, N-[[1-[2-(1-Naphthyloxy)ethyl]azetidin-3-yl]methyl]naphthalene-2-sulphonamide] | 30% | 99% | 13 nM | 99% | – | 63% | 98% | 17 nM | 81% | 98% | –
7 | O=S(=O)(NCC1CN(CCCc2noc3cc(F)ccc23)C1)c1cccc2ccccc12 [Compound 133, N-[[1-[3-(6-Fluoro-1,2-benzoxazol-3-yl)propyl]azetidin-3-yl]methyl]-naphthalene-1-sulphonamide] | 17% | 92% | – | 93% | 58% | 88% | 42% | – | 93% | 47% | –
8 | CC1(C)Cc2cccc(OCCN3CCC(NS(=O)(=O)c4ccc5ccccc5c4)C3)c2O1 (centres unmarked) [Compound 108, N-[1-[2-[(2,2-Dimethyl-3H-benzofuran-7-yl)oxy]ethyl]pyrrolidin-3-yl]naphthalene-2-sulphonamide] | -4% | 59% | – | 93% | 23% | 85% | 36% | – | 45% | – | –
9 | O=S(=O)(NCC1CN(CCCc2noc3cc(F)ccc23)C1)c1ccc2scnc2c1 [Compound 132, N-[[1-[3-(6-Fluoro-1,2-benzoxazol-3-yl)propyl]azetidin-3-yl]methyl]-1,3-benzothiazole-5-sulphonamide] | 10% | 69% | – | 82% | 33% | 39% | 20% | – | 80% | 43% | –
10 | Cc1c(S(=O)(=O)NCC2CN(CCCc3noc4cc(F)ccc34)C2)sc2ccc(Cl)cc12 [Compound 131, 5-Chloro-N-[[1-[3-(6-fluoro-1,2-benzoxazol-3-yl)propyl]azetidin-3-yl]-methyl]-3-methyl-benzothiophene-2-sulphonamide] | 17% | 97% | 9 nM | 97% | 51% | 50% | 55% | – | 92% | 88% | 19 nM
11 | Cc1c(S(=O)(=O)NCC2CN(CCCc3noc4cc(F)ccc34)C2)sc2ccc(F)cc12 [Compound 130, 5-Fluoro-N-[[1-[3-(6-fluoro-1,2-benzoxazol-3-yl)propyl]azetidin-3-yl]methyl]-3-methyl-benzothiophene-2-sulphonamide] | 15% | 98% | 9.7 nM | 97% | 51% | 67% | 64% | – | 94% | 89% | 10 nM
